The target in this assay is T1, AgORco+AgOR10 (Anopheles gambiae, UniProt Q7QCC7).
T1 construct: expressed in transfected cells
T1 sequence (Q7QCC7 1-478): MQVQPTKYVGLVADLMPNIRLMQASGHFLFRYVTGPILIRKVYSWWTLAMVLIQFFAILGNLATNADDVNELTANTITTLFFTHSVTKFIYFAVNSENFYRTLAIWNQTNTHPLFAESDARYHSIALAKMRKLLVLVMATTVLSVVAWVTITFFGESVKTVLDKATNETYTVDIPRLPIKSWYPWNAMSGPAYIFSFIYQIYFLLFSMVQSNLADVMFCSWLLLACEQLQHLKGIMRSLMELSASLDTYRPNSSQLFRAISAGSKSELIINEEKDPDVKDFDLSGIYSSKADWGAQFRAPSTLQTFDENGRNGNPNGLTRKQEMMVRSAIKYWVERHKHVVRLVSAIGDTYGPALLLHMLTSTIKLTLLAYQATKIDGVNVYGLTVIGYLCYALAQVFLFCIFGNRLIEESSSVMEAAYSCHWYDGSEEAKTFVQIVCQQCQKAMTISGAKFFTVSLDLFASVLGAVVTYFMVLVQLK
Nature of the assay: Fluo-4 Ca2+ imaging, HEK293 cells expressing Orco+AgOR10. The assay is classed as cell-based. Conditions: AgORco+AgOR10 cells; not seen in control cells. In a few lines: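 Stable Flp-In T-REx 293 lines co-expressing Orco and OR, induced overnight with 0.3 u-g/ul tetracycline, loaded with 1.8 uM Fluo-4 AM plus 2.5 mM probenecid for 45 min at 37 °C. Ca2+ mobilization read after 20 s baseline and compound addition; Max/Min ratios normalized to the maximum responder.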

Turning to `CCc1ccc(NC(=O)CSc2nnc(-c3cccnc3)n2CC)cc1` [VUAA1, 2-((4-ethyl-5-(pyridin-3-yl)-4H-1,2,4-triazol-3-yl)thio)-N-(4-ethylphenyl)acetamide], the “response in plate-based calcium imaging” value is given as “concentration-dependent responses”.
